Measured values from patent US9561278B2, “Derivatized hyperbranched polyglycerols” (THE UNIVERSITY OF BRITISH COLUMBIA, priority 2010, dated 2017).
In brackets after ≈: the same amount, converted by molar mass.

What was measured:
[1] = In vitro cisplatin release by dialysis; format: physicochemical; conditions: PBS, 37° C.
Procedure: Cisplatin was bound to the carboxylate modified HPGs as described above with final polymer and cisplatin concentrations of 10 and 1 mg/mL, respectively. Into 7000 MWCO Slide-A-Lyzer mini dialysis units (Thermo Scientific, Rockford, Ill.), 20 μL of cisplatin bound polymer solution, or a 1 mg/mL solution of free cisplatin, were added and the samples were dialyzed at 37° C. with stirring against 4 L of 1 mM PBS adjusted to pHs of 4.5, 6.0, and 7.4 or synthetic urine at pH 7.0. Synthetic urine (Surine) was purchased from Dyna-Tek Industries (Lenexa, Kans.). At predetermined time points, three dialysis units were removed from the release media, and the entire contents were removed with three washings of the dialysis unit followed by dilution to 1 mL with fresh release media. The cisplatin concentration of contents of the dialysis units was determined by OPDA colorimetric assay. The cumulative percent drug released was calculated by subtracting the amount of drug remaining from the initial amount of drug in the dialysis bag at the beginning of the experiment. The data were expressed as cumulative percentage of drug released as a function of time.

[2] = test system: KU-7-luc bladder cancer cells; test: Cytotoxicity evaluation, MTS cell proliferation assay; format: cell-based; conditions: cisplatin concentration
Procedure: Cytotoxicity studies were performed using the MTS cell proliferation assay (Promega, Madison, Wis.). […] In this study, KU-7-luc bladder cancer cells, kindly provided by Dr. M. Tachibana (Keio University, Tokyo, Japan). The cells were plated at 5000 cells/well into 96-well plates in 180 μL of Dulbecco's modified Eagle (DMEM) medium (Invitrogen Canada, Inc., Burlington, ON) supplemented with 10% fetal bovine serum (FBS) (Invitrogen Canada, Inc., Burlington, ON), 1% penicillin-streptomycin, and 1% L-glutamine and allowed to grow for 24 h at 37° C. in 5% CO2 to reach approximately 80% confluence for cytotoxicity assays. Cells were then incubated for 2 or 72 h with HPGs alone, ranging from 0.01-100 mg/mL, or free cisplatin or cisplatin-loaded HPGs with drug concentrations ranging from 0.01-100 μg/mL. After treatment, the cells were washed twice with Hank's balanced salt solution (HBSS) and 180 μL of fresh culture media was added into each well and cells were allowed to grow for 72 h. Proliferation of these cells was measured using a CellTiter 96 aqueous non-radioactive cell proliferation assay (Promega, Madison, Wis.) as described previously (Mugabe, C.; Hadaschik, B. A.; Kainthan, R. K.; Brooks, D. E.; So, A. I.; Gleave, M. E.; Burt, H. M. BJU Int. 2009, 103, 978-986). […] The absorbance was measured at 490 nm with a reference of 620 nm using a microplate reader.

[3] = cited from earlier work

N.N.[Cl][Pt][Cl] [free cisplatin, cisplatin]
time to 100% complete release [1]: ≤ 7 h
IC50 ([2]; 2 h incubation): approximately 10 μg/mL
IC50 ([2]; 72 h incubation): 1 µg/mL

CC(=O)O[C@@]12CO[C@@H]1C[C@H](O)[C@@]1(C)C(=O)[C@H](O)C3=C(C)[C@@H](OC(=O)[C@H](O)[C@@H](NC(=O)OC(C)(C)C)c4ccccc4)C[C@@](O)([C@@H](OC(=O)c4ccccc4)[C@H]21)C3(C)C [DTX, docetaxel]
aqueous solubility [3]: ~7 µg/mL (≈ 8.66 µM)
